Reference: patent publication US20250332173A1, “COMPOUNDS AND METHODS FOR MODULATING NUCLEIC ACID SPLICING” (REMIX THERAPEUTICS INC., priority 2021, published 2025)
Where two headings read alike, the source gives them in different places.

Legend:
Format in all cases: cell-based, human
Target C = assay: HiBiT protein abundance assay, Target C (Promega Nano-Glo HiBiT Lytic Detection System, knock-in K562 cell line); conditions: Homo sapiens, K562, 24 h, HiBiT K562 cell line, 24 hours, top dose 10 μM; read-out: Effect on protein abundance, Target C (IC50 category)
Outline: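 Protein abundance was read by Nano-Glo HiBiT lytic luminescence after 24 h compound exposure (10-point, threefold series from 10 μM final) of HiBiT knock-in K562 cells. Parental K562 served as baseline; the 50%-abundance concentration was interpolated from a four-parameter logistic fit.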

HTT mRNA = assay: RT-qPCR splicing assay, HTT canonical junction (CJ) and alternative junction (AJ) mRNA; conditions: Homo sapiens; for AC50: increase in HTT alternative junction (AJ) mRNA, read-out: HTT AJ AC50
Outline: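 Splicing switches were read by TaqMan RT-qPCR on lysates, quantifying exon-exon junctions of the canonical and alternative-exon isoforms. Lysates came from K562 (GAPDH/GUSB reference) or A673 (PPIA reference) cells exposed 24 h to compound in 11 threefold steps from 10 uM, with DMSO ≤0.25%.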

SMN2 mRNA = assay: RT-qPCR splicing assay, SMN2 canonical junction (CJ) mRNA; conditions: Homo sapiens; Table 5 panel; canonical junction qPCR; compound concentration having 50% response in CJ decrease; read-out: SMN2 IC50 (decrease in CJ mRNA levels)
Outline: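 Exposure: 24 h, 37 °C, 11-point 3-fold dilutions from 10 uM final, DMSO at or below 0.25%, in A673 or K562 cells. Detection: cell-lysate RT-qPCR of canonical junction mRNA relative to GAPDH, GUSB or PPIA.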

[1] = decrease in HTT canonical junction (CJ) mRNA, RT-qPCR, read-out: HTT CJ IC50
[2] = Table 5 panel, canonical junction qPCR, compound concentration having 50% response in CJ decrease, read-out: HTT IC50 (decrease in CJ mRNA levels)

| SMILES | IC50 (Target C) [µM] | IC50 (HTT mRNA; [1]) [µM] | AC50 (HTT mRNA; RT-qPCR) [µM] | IC50 (HTT mRNA; [2]) [µM] | IC50 (SMN2 mRNA) [µM] |
| --- | --- | --- | --- | --- | --- |
| Cc1cn2cc(-c3ccc4c(=O)n([C@@H]5CCN[C@H](C)C5)cnc4c3)cc(F)c2n1 [Compound 295] | 1 to 10 | 1 to 10 | 1 to 10 | 1 to 10 | < 0.1 |
| Cc1cn2nc(-c3ccc4c(=O)n([C@H]5CCNC6(CC6)C5)cnc4c3)cc(C)c2n1 [Compound 349, 3-[(7S)-4-azaspiro[2.5]octan-7-yl]-7-{2,8-dimethylimidazo[1,2-b]pyridazin-6-yl}quinazolin-4-one] | 1 to 10 | 0.1 to 1 | 0.1 to 1 | 0.1 to 1 | < 0.1 |
| Cc1cn2cc(-c3cc(F)c4c(=O)n(C5CCNCC5)cnc4c3)cc(C)c2n1 [Compound 317] | 0.1 to 1 | 0.1 to 1 | 0.1 to 1 | 0.1 to 1 | < 0.1 |
| Cc1cn2cc(-c3cc(F)c4c(=O)n(C5=CCNCC5)cnc4c3)cc(F)c2n1 [Compound 342] | 0.1 to 1 | 0.1 to 1 | < 0.1 | < 0.1 | < 0.1 |
| Cc1cn2cc(-c3cc(F)c4c(=O)n([C@H]5CCN[C@H](C)C5)cnc4c3)cc(F)c2n1 [Compound 346, trans-5-fluoro-7-(8-fluoro-2-methylimidazo[1,2-a]pyridin-6-yl)-3-(2-methylpiperidin-4-yl)quina-zolin-4(3H)-one] | 0.1 to 1 | 0.1 to 1 | 0.1 to 1 | 0.1 to 1 | < 0.1 |
| Cc1cn2cc(-c3cc(F)c4c(=O)n(C5CCNCC5)cnc4c3)nc2c(C)n1 [Compound 319] | 1 to 10 | 1 to 10 | 1 to 10 | 1 to 10 | < 0.1 |
| Cc1cn2nc(-c3ccc4c(=O)n([C@@H]5C[C@H]6CC[C@@H](C5)N6)ncc4c3)cc(C)c2n1 [Compound 280] | 0.1 to 1 | 0.1 to 1 | 0.1 to 1 | 0.1 to 1 | < 0.1 |
| Cc1cn2nc(-c3cc(N(C)C)c4c(=O)n(C5CCNC6(CC6)C5)cnc4c3)cc(C)c2n1 (stereo not shown) [Compound 345] | > 10 | < 0.1 | < 0.1 | < 0.1 | < 0.1 |
| Cn1cc2cc(-c3cc(F)c4c(=O)n(C5CCNCC5)cnc4c3)cc(F)c2n1 [Compound 314] | > 10 | 1 to 10 | 1 to 10 | 1 to 10 | 0.1 to 1 |
| Cc1nc2c(F)cc(-c3ccc4c(=O)n(C5CCN(C)CC5)cnc4c3)cc2s1 [Compound 301] | 1 to 10 | 1 to 10 | 1 to 10 | 1 to 10 | 1 to 10 |
| Cc1cn2cc(-c3ccc4c(=O)n(C5CCN(C)CC5)cnc4c3)ncc2n1 [Compound 308] | 1 to 10 | 1 to 10 | 1 to 10 | 1 to 10 | 0.1 to 1 |
| Cc1cn2cc(-c3cc(F)c4c(=O)n(C5CCNCC5(F)F)cnc4c3)cc(F)c2n1 (stereo not shown) [Compound 339] | > 10 | > 10 | 1 to 10 | 1 to 10 | 0.1 to 1 |
| Cc1cn2nc(-c3cc(F)c4c(=O)n(C5CCNC6(CC6)C5)cnc4c3)cc(C)c2n1 (stereo not shown) [Compound 351] | < 0.1 | < 0.1 | < 0.1 | < 0.1 | < 0.1 |
| Cc1cn2cc(-c3ccc4c(=O)n(C5CCNCC5)cnc4c3)cc(Cl)c2n1 [Compound 291] | 0.1 to 1 | 0.1 to 1 | 0.1 to 1 | 0.1 to 1 | < 0.1 |
| Cc1nc2c(F)cc(-c3ccc4c(=O)n(C5CCNCC5)cnc4c3)cc2s1 [Compound 285] | 1 to 10 | > 10 | 1 to 10 | 1 to 10 | < 0.1 |
| Cc1cn2cc(-c3cc(F)c4c(=O)n(N5CCNCC5)cnc4c3)cc(F)c2n1 [Compound 340, 5-fluoro-7-{8-fluoro-2-methylimidazo[1,2-a]pyridin-6-yl}-3-(piperazin-1-yl)quinazolin-4-one] | 0.1 to 1 | 0.1 to 1 | 0.1 to 1 | 0.1 to 1 | < 0.1 |
| CCN1CCC(n2ncc3cc(-c4cc(C)c5nc(C)cn5n4)ccc3c2=O)CC1 [Compound 266] | 0.1 to 1 | < 0.1 | < 0.1 | < 0.1 | < 0.1 |
